“Also recorded” adds a separate entry of the source.

Here are results for 1 molecule from US20170348337A1, “MULTIFUNCTIONAL MEMBRANE-ACTIVE AMINOGLYCOSIDE-PEPTIDE CONJUGATES” (priority 2014, published 2017).

A short description of experiment [1]: synchrotron small angle X-ray scattering (SAXS) of model membranes. The conditions noted are these: DOPE/DOPS=80/20; Pentobra to lipid 1/80; tobramycin to lipid 1/20 or 1/40. Here is the method: Briefly, DOPE and DOPS lyophilized lipids from Avanti Polar lipids were used without further purification. SUVs were prepared by sonication. Stock solutions of DOPE and DOPS were prepared in chloroform at ˜20 mg/g. Mixtures of these lipids were prepared at molar ratios, so DOPE/DOPS=80/20 corresponded to a 4:1 lipid ratio. Chloroform was evaporated under N2, and the mixtures were dried further by overnight desiccation under vacuum. The dried lipids were resuspended the next day in 100 mM NaCl. Solutions were incubated at 37° C. for 18 h and then sonicated until clear. SUVs were obtained by extrusion (0.2 μm pore Nucleopore filter).
Pentobra and tobramycin stock solutions were prepared by dissolving the molecules in 100 mM NaCl. Lipids were thoroughly mixed with Pentobra/tobramycin at specific molecule to lipid ratios (P/L) in 100 mM NaCl. Sample solutions were hermetically sealed in quartz-glass capillaries (Hilgenberg GmbH, Mark-tubes, code no: 4017515). Synchrotron SAXS experiments were conducted at the Stanford Synchrotron Radiation Laboratory (BL 4-2). Monochromatic X-rays with 9 keV energy were used. Scattering was collected using a Rayonix MX225-HE detector (pixel size 73.2 μm). Samples were also measured at the California NanoSystems Institute (CNSI) at UCLA. […] Identical samples were prepared and measured at different times and multiple sources to ensure consistency between samples. […]

Experiment [2] has as its system S. aureus S113 persister cells. The experiment in a line: persister cell plate killing assay. It counts as cell-based, Staphylococcus aureus. The conditions noted are these: 1.5 h. The method, then: (§1) Procedure for preparing S. aureus SA113 and E. coli Dh5α persister cells were based on previous protocols. Cells from freshly streaked agar plates were inoculated in 1 mL TSB and incubated 16 h at 37° C. in a shaker incubator to obtain stationary phase cultures. Non-persister cells were eliminated by adding ampicillin to a final concentration of 100 μg/mL, followed by 3 h incubation at 37° C.
S. aureus cells were diluted 10× into 10 mM Pipes at pH 7.4 buffer for a bacteria stock solution of roughly 10^9 CFU/mL. 20 μL S. aureus suspension was introduced into 180 μL Pipes buffer containing various concentrations of antibiotic (Pentobra, tobramycin) in 96 well plates for a total of ˜10^8 CFU/well. The plates were sealed with parafilm, loaded onto microplate shakers and placed in 37° C. incubator for 1.5 h. After incubation, 10-fold serial dilutions were made in Pipes buffer. Half of each dilution (100 μL) was spotted onto LB agar plates and incubated overnight at 37° C. to yield visible colonies. The S. aureus persister assays were performed in triplicate. The data shown are averages from two independent trials and were representative of the three assays.
(§2) The bactericidal effects of Pentobra against persistent bacteria were investigated with plate killing assays. […]

The subject of experiment [3] is E. coli Dh5α persisters. The experiment in a line: persister cell plate killing assay. It is filed as cell-based, Escherichia coli. The method, then:
as §1
E. coli cells were pelleted (5000 rpm for 5 min), washed in M9 minimal media and resuspended in M9 minimal media to a final bacteria stock solution of 5×10^7 CFU/mL. 20 μL E. coli suspension was introduced into 180 μL M9 media containing various concentrations of antibiotic (Pentobra, tobramycin) in 96 well plates for a total of 10^6 CFU/well. The plates were sealed with parafilm, loaded onto microplate shakers and placed in a 37° C. incubator for 1.5 h. After incubation, 10-fold serial dilutions were made with M9 media. Half of each dilution (100 μL) was spotted onto LB agar plates and incubated overnight at 37° C. to yield visible colonies. The E. coli persister assays were performed in quadruplicate.
as §2

Experiment [4] has as its system E. coli ML35. The experiment in a line: E. coli ML35 cell permeabilization assay (ONPG→ONP conversion). It is filed as cell-based. Particulars: 90 min, 37° C. Here is the method: E. coli ML35 [lacZ-(Con) ΔlacY] cannot take up the lactose mimic ONPG unless cell membrane integrity is compromised. Upon membrane permeabilization ONPG can diffuse into the bacterial cell cytoplasm where it is hydrolyzed by β-galactosidase into galactose and ONP. Since ONP absorbs at 400 nm, the permeabilization kinetics of membrane-disrupting agents can be monitored by OD400 absorbance measurement. Methodology here was very similar to previous studies. Log-phase E. coli cells were grown as described above, washed and resuspended in 10 mM Tris supplemented with 0.01 volume (1% vol/vol) TSB at pH 7.4 (Tris-TSB). In triplicate, bacteria (5×10^6 cells/well) were exposed to various concentrations of antibiotic (Pentobra, tobramycin, Pen peptide) in the presence of 2.5 mM ONPG for 90 min at 37° C. The kinetics of ONPG hydrolysis were measured by determining the absorbance at 400 nm using a plate reader spectrophotometer.
To characterize the membrane activity of Pentobra on bacteria, its permeabilization kinetics were monitored on live cells by conducting an enzymatic assay for the conversion of ortho-nitrophenyl β-D-galactopyranoside (ONPG) to ortho-nitrophenol (ONP) on the E. coli strain ML35. E. coli ML35 [lacZ-(Con) ΔlacY] constitutively expresses β-galactosidase (β-gal) but lacks the lactose permease necessary for uptake of the lactose analogue ONPG. […]

With `NC[C@H]1O[C@H](O[C@H]2[C@H](O)[C@@H](O[C@H]3O[C@H](CO)[C@@H](O)[C@H](N)[C@H]3O)[C@H](N)C[C@@H]2N)[C@H](N)C[C@@H]1O` [tobramycin], the “induced membrane curvature / phase (negative Gaussian curvature, NGC)” value in experiment [1] is given as “induced NGC was not observed; also recorded: did not induce NGC or negative mean curvature”. Moreover, the “reduction in CFU” value in experiment [2] (range of tested concentrations) is recorded as “less than one”. Moreover, the “killing activity against persister cells” value in experiment [2] (varying concentrations) was “little susceptibility”; in experiment [3] (1.5 h, entire range of tested concentrations) it was “poor activity”. The “activity against persisters at high concentration” value in experiment [3] (>50 μM) is listed as “ineffective”. Besides, the “inner membrane permeabilization (400 nm absorbance, ONPG→ONP)” value in experiment [4] was “no membrane permeabilization occurred; also recorded: comparable to background”.
